Results on three compounds are retold here after publication PMC6586847, “ATP binds and inhibits the neurodegeneration-associated fibrillization of the FUS RRM domain” (Communications Biology, 2019).

Broadly, the Kd is the equilibrium constant for the complex coming apart.

Molecules are shown by their SMILES.

This assay concerns the target T1, FUS RRM domain (Homo sapiens, UniProt P35637).
T1 construct: RRM domain (285–370)
T1 sequence (P35637 284-371 limits assumed): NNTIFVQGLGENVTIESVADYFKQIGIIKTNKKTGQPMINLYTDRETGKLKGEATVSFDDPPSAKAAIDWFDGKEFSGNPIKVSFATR
Put plainly: 1H-15N HSQC NMR titration, one-site fit of chemical shift differences. Format: binding.
Take `Nc1ncnc2c1ncn2[C@@H]1O[C@H](COP(=O)(O)O)[C@@H](O)[C@H]1O` [AMP]: the Kd amounted to 17.2 ± 2.61 mM. With `Nc1ncnc2c1ncn2[C@@H]1O[C@H](COP(=O)(O)OP(=O)(O)OP(=O)(O)O)[C@@H](O)[C@H]1O` [ATP], the Kd was 3.77 ± 0.49 mM. For the compound `O=P(O)(O)OP(=O)(O)OP(=O)(O)O` [PPP], the Kd stood at 12.6 ± 3.53 mM.
